Values of other authors in patent publication US20130178603A1, “MULTI-MODE CANCER TARGETED NANOPARTICULATE SYSTEM AND A METHOD OF SYNTHESIZING THE SAME” (priority 2012, published 2013).

Conditions: after I.V administration

mean distribution half-life: 1.5 to 3.5 h
SMILES: CN(Cc1cnc2nc(N)nc(N)c2n1)c1ccc(C(=O)N[C@@H](CCC(=O)O)C(=O)O)cc1 [MTX, methotrexate]
